Experimental findings from patent US9617541B2, “Biocompatible infinite coordination polymer nanoparticle-nucleic acid conjugates for antisense gene regulation” (NORTHWESTERN UNIVERSITY, priority 2014, dated 2017) are described below.

The series is described as follows: Solubility observations. In kind it is physicochemical. On the procedure: To a 100 mL round-bottomed flask with a magnetic stirrer was added (2) (5.90 g, 22.67 mmol), maltol (3.57 g, 28.34 mmol), and 30 mL of acidic 2-ethoxyethanol (49:1 ethoxyethanol/12M HCl). The reaction vessel was fitted with a water-cooled condenser and the mixture heated to reflux for 64 h. The resulting suspension was vacuum-filtered while hot and the solids washed with water (50 mL), followed by acetone (50 mL), to afford the crude product as a fine brown solid. […] HRMS-ESI (m/z): [M+H]^+ calculated for C19H17N2O6 369.1081. found 369.1084.
In a typical experiment, an aqueous stock solution of DABA-bis-HP-N3 was prepared consisting of 2.28 mM ligand and 24.5 mM NaOH. […] A stock solution of Fe(NO3)3.9H2O was prepared consisting of 10.80 mM Fe^3+ and 4 mM HCl (as stabilizer). To a glass vial was added 877 μL ligand stock solution, followed by 1 mL Milli-Q H2O, followed by 123 μL Fe(III) stock and the resulting orange-red mixture (2 mL) shaken for 10 minutes. The as-synthesized particles have a mean diameter ranging from 10-20 nm (DLS). Particles were purified by filtration through an Amicon Ultra 15 mL centrifugal filter with a nominal molecular weight cutoff (MWCO) of 100 kDa, washing with 3×3 mL portions of Milli-Q H2O, spinning at 5000 rcf for 10 minutes each. The particles were resuspended in 2 mL of H2O to give an approximate azide concentration of 1 mM. The particle solution was lyophilized and the resulting dark red powder characterized by FTIR (KBr), showing the characteristic azide stretch at 2093 cm^−1 is retained after the nanoparticle synthesis.

SMILES strings stand for the structures.

Take `Cc1c(O)c(=O)ccn1-c1cc(C(=O)O)cc(-n2ccc(=O)c(O)c2C)c1` [compound 3, Diaminobenzoic Acid Bis-Hydroxypyridinone]: the “solubility in hot DMSO and DMF” value (hot DMSO and DMF) is “soluble”. The solubility in methanol result (methanol) was “sparingly soluble”.

For `Cc1c(O)c(=O)ccn1-c1cc(C(=O)NCCCCN=[N+]=[N-])cc(-n2ccc(=O)c(O)c2C)c1` [compound 4, Diaminobenzoic Acid Bis-HP Azide], the solubility in water entry (water, as disodium salt) is recorded as “freely soluble”.
